According to paper PMC12446476 (Nature Communications, 2025):

Experimental for Caco-2 cell monolayers: Various controls were assessed in parallel, including atenolol (low permeability) and diclofenac (high permeability).
(§1) The instrument operated in positive ionisation mode (ESI + ) over a m/z range of 80–1000 (n = 1 measure per sample). Data were extracted from chromatograms using calculated monoisotopic accurate masses for protonated molecular ions within 5 ppm windows.
Experimental for human hepatocytes: Pooled human hepatocytes from 10-donor males (BioIVT, West Sussex, UK; MX008001) or 10-donor females (BioIVT, West Sussex, UK; FX008001) were incubated with test compounds (or vehicle) and the compound concentration was measured over time. Samples were incubated at 37 °C and concentrations were assessed after 0, 20-, 40-, 60- and 240-min. Verapamil was included as a control.
as §1

Q: With Cc1c(CN(C)C(=O)/C=C/c2cnc3c(c2)N[C@H](C)[C@H](OP(=O)([O-])[O-])C(=O)N3)oc2ccccc12.[Na+].[Na+] [Debio 1453 P] as the compound, how does the “Apparent permeability (Papp)” value (Caco-2 cell monolayers) read?
A: The value was “negligible”.

Q: And the “permeability through transwells A → B” value (Caco-2 cell monolayers)?
A: The value was 31.8 ×10⁻⁶ cm/s.

Q: And the “Intrinsic clearance (Clint)” value (human hepatocytes)?
A: Its value is < 0.44 µL/min/million cells.
